Measurements from ChEMBL document CHEMBL1201862, “PubChem BioAssay data set” (2004).
Activity calls are given as the source filed them.

Columns and labels:
[1] = HEK293 Cytotoxicity Assay Measured in Cell-Based System Using Plate Reader - 7071-01_Inhibitor_Dose_CherryPick_Activity_Set2.; format: functional
[2] = test system: HEK293; experiment: viability loss in HEK293T cells – cell-based, ATP luminescence, cherry-pick samples, cytotoxicity control, dose response (AID 687005); format: functional; details: Homo sapiens;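 also: cells exposed to compound for 48 hours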
[3] = biological target: Potassium channel subfamily K member 9 (Homo sapiens, UniProt Q9NPC2); experiment: KCNK9 flux blockade, concentration-response – cell-based, FluxOR thallium flux, selectivity assay for TASK1 inhibitor project, SAR follow-up (AID 652211); format: functional;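 also: potency is for inhibitors of the channel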
[4] = biological target: Potassium channel subfamily K member 3 (Homo sapiens, UniProt O14649); experiment: inhibition of human KCNK3 channel flux – CHO cells, FluxOR thallium flux, SAR follow-up (AID 652212); format: functional
[5] = inhibitors acting on PAX2 in cells – cell-based, plate reader, dry powder samples, selectivity assay for PAX8 inhibitor project, dose response (AID 743048); format: functional;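 also: HEK293 cells carrying a WT1 promoter luciferase reporter driven by expressed Pax2; potency is for inhibition of Pax2 driven reporter signal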
[6] = COV362 cell viability loss – plate reader, dry powder, SA12, cytotoxicity control for PAX8 inhibitor project, dose response (AID 743144); format: functional, cell-based
[7] = OV-90 cell viability loss – plate reader, dry powder, SA8, PAX8 inhibitor project, dose response (AID 743149); format: functional, cell-based
[8] = PAX8-dependent cell viability loss – plate reader, dry powder, dose response (AID 743049); format: functional, cell-based
[9] = toxicity toward immortalized ovarian surface epithelium – cell-based, plate reader, dry powder samples, cytotoxicity control for PAX8 inhibitor project, dose response (AID 743045); format: functional
[10] = OVCAR4 cell viability loss – plate reader, dry powder, SA11, cytotoxicity control for PAX8 inhibitor project, dose response (AID 743150); format: functional, cell-based; details: OVCAR-4
[11] = IGROV1 cell killing – plate reader, dry powder samples, PAX8 inhibitor project, dose response (AID 743043); format: functional, cell-based; details: IGROV-1
[12] = OVCAR-3 cell viability loss – plate reader, dry powder samples, PAX8 inhibitor project, dose response (AID 743044); format: functional, cell-based
[13] = COV434 cell viability loss – plate reader, dry powder, SA7, cytotoxicity control for PAX8 inhibitor project, dose response (AID 743145); format: functional, cell-based
[14] = PAX5 cellular inhibition readout – cell-based, plate reader, dry powder samples, selectivity assay for PAX8 inhibitor project, dose response (AID 743047); format: functional;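 also: HEK293 cells carrying a Pax5 driven CD19 promoter luciferase reporter; potency of inhibitors that lower reporter luminescence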
[15] = test system: Streptococcus; experiment: GAS UMAA2166 growth inhibition – luminescence, BacTiterGlo, counter-screen for streptokinase expression inhibitor project, dose response (AID 1915); format: functional, organism-based;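 also: potency for reduction of bacterial viability or growth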
[16] = biological target: T1, Heat shock factor protein 1 (Mus musculus, UniProt P38532); experiment: enhancement of HSF1-driven luciferase signal – cell-based, NIH3T3, luminescence, dose retest, confirmation (AID 435004); format: functional;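 also: stress induced by proteasome inhibitor MG132 added 30 min after compound; luciferase reporter driven by HSF1 response element in NIH3T3 cells; actives raise luminescence as potentiators of the MG132 stress response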
T1 sequence (P38532 whole entry): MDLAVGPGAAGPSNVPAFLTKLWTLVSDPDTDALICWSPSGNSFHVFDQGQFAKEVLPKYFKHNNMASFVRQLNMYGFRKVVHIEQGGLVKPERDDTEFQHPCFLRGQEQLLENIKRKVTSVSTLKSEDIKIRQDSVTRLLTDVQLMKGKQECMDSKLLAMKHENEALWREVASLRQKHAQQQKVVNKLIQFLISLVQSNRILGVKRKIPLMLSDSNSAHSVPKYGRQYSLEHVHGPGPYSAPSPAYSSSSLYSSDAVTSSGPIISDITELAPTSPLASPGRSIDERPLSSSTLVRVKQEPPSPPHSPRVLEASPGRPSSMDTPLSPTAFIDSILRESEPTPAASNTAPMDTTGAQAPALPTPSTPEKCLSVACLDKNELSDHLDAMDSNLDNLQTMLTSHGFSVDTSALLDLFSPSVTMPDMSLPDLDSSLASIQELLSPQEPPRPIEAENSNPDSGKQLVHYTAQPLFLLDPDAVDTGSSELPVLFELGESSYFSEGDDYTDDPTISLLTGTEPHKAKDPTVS

[17] = biological target: T2, Streptokinase A (Streptococcus pyogenes serotype M1, UniProt P10520); experiment: viability-normalized secreted streptokinase activity reduction – plasminogen activation absorbance, OD405, dose response (AID 1914); format: functional, Streptococcus pyogenes M1 GAS;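 also: secreted streptokinase activity via plasminogen activation per viability signal from cell pellet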
T2 sequence (P10520 whole entry): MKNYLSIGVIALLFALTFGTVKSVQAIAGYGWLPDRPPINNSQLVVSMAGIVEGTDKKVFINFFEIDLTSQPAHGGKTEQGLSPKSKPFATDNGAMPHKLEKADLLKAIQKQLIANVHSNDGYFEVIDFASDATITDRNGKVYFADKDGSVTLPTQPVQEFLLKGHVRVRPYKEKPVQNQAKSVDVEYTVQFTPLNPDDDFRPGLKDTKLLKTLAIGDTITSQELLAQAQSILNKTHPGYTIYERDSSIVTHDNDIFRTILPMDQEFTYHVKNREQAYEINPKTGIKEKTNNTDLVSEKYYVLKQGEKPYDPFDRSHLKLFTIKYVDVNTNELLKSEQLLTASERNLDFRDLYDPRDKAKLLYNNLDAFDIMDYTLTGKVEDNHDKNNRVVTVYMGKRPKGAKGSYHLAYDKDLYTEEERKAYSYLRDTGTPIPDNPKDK

[18] = viability loss in HepG2 hepatoma cells – cell-based, ATP luminescence, cherry-pick, activator set 2, cytotoxicity control, dose response (AID 1053143); format: functional
[19] = cells
[20] = biological target: Major prion protein (Homo sapiens, UniProt P04156); format: functional, cell-based
[21] = biological target: Photoreceptor-specific nuclear receptor (Homo sapiens, UniProt Q9Y5X4); format: functional, cell-based;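 also: CHO-S cells with Gal4-NCOR and VP16-NR2E3 two-hybrid luciferase reporter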
[22] = test system: CHO; experiment: CHO cell viability loss, potency – luminescence, cytotoxicity control for TLR9-MyD88 binding inhibitor project, dose response (AID 588339); format: functional, cell-based, hamster; details: Cricetulus griseus;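 also: CHO cells stably coexpressing TLR9 and MyD88 fusions from primary screen; compound exposure lasted 48 hours before viability readout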
[23] = biological target: Beta Lactamase (Pseudomonas aeruginosa, UniProt Q932Y6); experiment: BLA reporter interference, concentration series – BLA reporter cells, FRET fluorescence, artefact control for TLR9-MyD88 binding inhibitor project, dose response (AID 588341); format: cell-based;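 also: cell based assay in CHO-K1 cells stably expressing beta-lactamase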
[24] = Late stage assay provider counterscreen for TLR9 inhibitors: absorbance-based cell-based MTT cytotoxicity assay.; format: functional
[25] = reduced cellular PGC1a acetyl-lysine signal – cell-based, cherry-picked samples, dose response (AID 720514); format: functional;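 also: potency may reflect raised or lowered acetylation signal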
[26] = Late stage assay provider results from the probe development effort to identify selective inhibitors of heat shock protein 90 (HSP90): Absorbance-based cell proliferation assay in MCF7 cells.; format: functional
[27] = Late stage assay provider results from the probe development effort to identify selective inhibitors of heat shock protein 90 (HSP90): Absorbance-based cell proliferation assay in SKBR3 cells.; format: functional; details: SK-BR-3

## COc1ccc(NC(=O)Nc2ccc3c(c2)C(=O)N([C@H](C)CO)C[C@H](C)[C@H](CN(C)C(=O)Cc2ccccc2)OCCCC[C@H](C)O3)cc1
[1]
  AC50: 25.4 µM (active)
[2]
  AC50: 25.4 µM (active)

## CCOc1ccccc1NC(=O)c1cccc(NC(=O)c2cccc(C(F)(F)F)c2)c1
[3]
  IC50: 1.38 µM (active)
[4]
  IC50: 0.232 µM (active)

## N#C[C@@H]1[C@@H](c2ccc(C#Cc3ccccc3F)cc2)[C@@H](CO)N1C(=O)C1CCCC1
[5]
  AC50: 16.5 µM (active)
[6]
  AC50: 48.5 µM (active)
[7]
  AC50: 35.3 µM (active)
[8]
  AC50: 11.9 µM (active)
[9]
  AC50: 27 µM (active)
[10]
  AC50: 44.3 µM (active)
[11]
  AC50: 47.3 µM (active)
[12]
  AC50: 29.7 µM (active)
[13]
  AC50: 10.9 µM (active)
[14]
  AC50: 18.1 µM (active)

## Cn1nnc(-c2ccc(OCc3ccccc3F)cc2)n1
[15]
  EC50: > 150 µM (not active)
[16]
  EC50: > 260 µM (inactive)
[17]
  EC50: > 150 µM (not active)
[18]
  AC50: 26 µM (active)

## O=C(O)CCC(=O)NNC(=O)COc1ccc2ccccc2c1Br
[19]
  IC50: > 138 µM (inactive)
[20]
  IC50: 4.45 µM (active)

## COc1ccc(C[C@@H]2OC3(C=CC(=O)C=C3)O[C@H]2Cc2ccc(OC)cc2)cc1
[21]
  IC50: 0.149 µM (active)
[22]
  IC50: 0.597 µM (active)
[23]
  IC50: 17.5 µM (inactive)
[24]
  CC50: 0.48 µM (active)
[25]
  AC50: 0.756 µM (active)

## COc1c[nH]c(C(=O)Nc2ccc(C(C)C)cc2)cc1=O
[26]
  IC50: > 100 µM (inactive)
[27]
  IC50: > 100 µM (inactive)
